Test results taken from patent publication EP4737450A1 (Longwood Pharmaceuticals (Hangzhou) Co., Ltd, priority 2023, dated 2025).
Read-outs that look alike come from different tables or passages of the source.

Legend:
plasma kallikrein (PKa) = molecular target: T1, plasma kallikrein (PKa) (Homo sapiens, UniProt P03952); assay: Inhibitory activity against plasma kallikrein in vitro (fluorescence intensity enzyme assay, Pro-Phe-Arg-AMC substrate); assay type: biochemical; conditions: Pro-Phe-Arg-AMC substrate
T1 construct: purchased R & D 2497-SE
T1 sequence (P03952 391-638 limits assumed): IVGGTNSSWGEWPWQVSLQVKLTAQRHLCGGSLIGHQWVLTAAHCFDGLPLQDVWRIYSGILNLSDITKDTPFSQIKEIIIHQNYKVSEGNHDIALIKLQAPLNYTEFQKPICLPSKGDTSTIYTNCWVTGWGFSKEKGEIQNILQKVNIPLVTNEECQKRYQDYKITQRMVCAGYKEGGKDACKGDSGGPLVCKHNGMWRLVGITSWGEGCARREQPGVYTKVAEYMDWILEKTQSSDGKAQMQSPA
T1 sequence (P03952 20-390 partner limits assumed): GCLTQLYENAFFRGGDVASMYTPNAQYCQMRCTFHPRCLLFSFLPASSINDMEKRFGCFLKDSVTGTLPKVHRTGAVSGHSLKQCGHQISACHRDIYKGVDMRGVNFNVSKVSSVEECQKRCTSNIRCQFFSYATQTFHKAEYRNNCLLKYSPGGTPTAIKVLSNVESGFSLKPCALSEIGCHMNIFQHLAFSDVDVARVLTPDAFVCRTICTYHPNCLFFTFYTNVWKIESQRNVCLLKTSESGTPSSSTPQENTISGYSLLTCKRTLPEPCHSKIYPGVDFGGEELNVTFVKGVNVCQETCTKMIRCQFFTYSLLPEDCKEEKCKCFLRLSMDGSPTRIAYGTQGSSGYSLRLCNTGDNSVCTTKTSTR
Procedure, shortened: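 Fluorescence intensity enzyme assay with 10 nM enzyme and 60 µM Pro-Phe-Arg-AMC (final concentrations). Compounds in DMSO, tested in duplicate over a dose series. IC50 from nonlinear regression curve fitting.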

KLK1 = KLK1 (Homo sapiens, UniProt P06870); assay: Inhibitory activity against KLK1 in vitro (biochemical assay); conditions: values given in µM
KLK1, sequence (P06870 25-262, species assumed): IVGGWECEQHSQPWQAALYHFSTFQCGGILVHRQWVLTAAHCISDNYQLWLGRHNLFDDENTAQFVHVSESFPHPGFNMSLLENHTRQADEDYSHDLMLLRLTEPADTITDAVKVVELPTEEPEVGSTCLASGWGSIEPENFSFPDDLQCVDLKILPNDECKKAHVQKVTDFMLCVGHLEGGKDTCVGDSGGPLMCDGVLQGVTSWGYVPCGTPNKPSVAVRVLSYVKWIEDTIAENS
Excerpt: Test Example 1. Test of the inhibitory activities of the compounds of the present invention against plasma kallikrein (PKa), KLK1 and FXIa in vitro. […]

FXIa = FXIa (Homo sapiens, UniProt P03951); assay: Inhibitory activity against FXIa in vitro (biochemical assay); conditions: values given in µM
FXIa, sequence (P03951 388-625 limits assumed): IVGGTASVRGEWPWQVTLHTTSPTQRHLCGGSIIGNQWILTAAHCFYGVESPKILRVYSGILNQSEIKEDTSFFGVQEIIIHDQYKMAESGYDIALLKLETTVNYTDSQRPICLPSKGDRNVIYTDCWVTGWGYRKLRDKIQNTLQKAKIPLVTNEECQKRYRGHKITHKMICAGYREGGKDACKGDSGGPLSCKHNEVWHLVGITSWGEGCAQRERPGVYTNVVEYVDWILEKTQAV
FXIa, sequence (P03951 19-387 partner limits assumed): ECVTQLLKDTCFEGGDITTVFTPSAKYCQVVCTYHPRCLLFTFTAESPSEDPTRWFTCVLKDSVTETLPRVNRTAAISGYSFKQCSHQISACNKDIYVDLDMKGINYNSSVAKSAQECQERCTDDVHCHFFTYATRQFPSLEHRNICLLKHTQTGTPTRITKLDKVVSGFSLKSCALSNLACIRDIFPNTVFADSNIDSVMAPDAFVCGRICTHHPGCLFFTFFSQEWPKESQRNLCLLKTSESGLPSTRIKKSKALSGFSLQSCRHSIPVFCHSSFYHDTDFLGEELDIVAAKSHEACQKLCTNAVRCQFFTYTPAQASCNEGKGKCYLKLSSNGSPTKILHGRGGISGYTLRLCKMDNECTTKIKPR
Protocol: Test Example 1. Test of the inhibitory activities of the compounds of the present invention against plasma kallikrein (PKa), KLK1 and FXIa in vitro.
PKK (R & D, Cat # 2497-SE) and Pro-Phe-Arg-AMC (Nanjing Peptide, Cat # NJP23946) solutions were prepared in reaction buffer (50 mM Tris-HCl, pH 7.5, 250 mM NaCl). The final concentrations of enzyme protein and Pro-Phe-Arg-AMC in the reaction mixture were 10 nM and 60 µM, respectively. The starting concentration of the positive reference substance Avoralstat was 100 nM, 3-fold dilution, 10 + 0 dose. 0.05 µL of compound in 100% DMSO was delivered to a 384-well plate by an acoustic liquid delivery technique (Echo665; nanoliter range). Compound duplex test. 5 µL of 2 × enzyme solution was transferred to a 384 reaction plate and centrifuged at 1000 rpm for 1 minute, incubated at 25°C for 15 minutes; 5 µL of 2 × Pro-Phe-Arg-AMC solution was transferred to a 384 reaction plate, centrifuged at 1000 rpm for 1 minute, incubated at 25°C for 3 hours. […] IC50 values and nonlinear regression curve fitting were obtained using GraphPad Prism software.

[1] = plasma kallikrein enzyme assay, read-out: PKa IC50
[2] = PKa IC50, plasma kallikrein enzyme assay

Row | SMILES | IC50 (plasma kallikrein (PKa); [1]) | IC50 (KLK1) | IC50 (FXIa) | IC50 (plasma kallikrein (PKa); [2])
1 | COCc1nn(Cc2ccc(Cn3ccccc3=O)cc2)cc1C(=O)N[C@@H]1CCc2c1ncn2C [Compound 70] | 1.87 nM | > 10 µM | > 10 µM | 
2 | Cc1cc(N)nc(C)c1CNC(=O)c1ncn(Cc2cc(Cn3ccccc3=O)cs2)n1 [Compound 73] | 3.07 nM | > 10 µM | > 10 µM | 
3 | COCc1cn(Cc2ccc(CN3CCCCC3=O)cc2)nc1C(=O)NCc1c(C)cc(N)nc1C [Compound 74] | 5.7 nM | > 10 µM | > 10 µM | 
4 | COCc1nn(Cc2ccc(Cn3ccccc3=O)cc2)cc1C(=O)NCc1cn2c(n1)CNCC2 [Compound 118] | 0.92 nM | > 10 µM | > 10 µM | 
5 | CCn1cnc2c1CC[C@H]2NC(=O)c1cn(Cc2ccc(Cn3ccccc3=O)cc2)nc1COC [Compound 130] | 1.09 nM | > 10 µM | > 10 µM | 
6 | Cc1cc2nccn2c(C)c1CNC(=O)c1nc(Cc2ccc(Cn3ccccc3=O)cc2)ns1 [Compound 137] | 0.9 nM | > 10 µM | > 10 µM | 
7 | COCc1nn(Cc2ccc(Cn3ccccc3=O)cc2)cc1C(=O)NCc1c(C)cn2cncc2c1C [Compound 147] |  | > 10 µM | > 10 µM | 1.57 nM
8 | O=C(NCc1cc2ccncc2[nH]1)c1cn(Cc2ccc(Cn3ccccc3=O)cc2)nc1C(F)(F)F [Compound 155] | 1.48 nM | > 10 µM | > 10 µM | 
9 | COCc1nn(Cc2ccc(N3CC4C(C3)C4(F)F)cc2C#N)cc1C(=O)NCc1cc2cnccc2[nH]1 (stereo not drawn) [Compound 157, N-((1H-pyrrolo[3,2-c]pyridin-2-yl)methyl)-1-(2-cyano-4-(6,6-difluoro-3-azabicyclo[3.1.0]hexan-3-yl)benzyl)-3-(methoxymethyl)-1H-pyrazole-4-carboxamide] | 1.89 nM | > 10 µM | > 10 µM | 
10 | Cc1cc2nccn2c(C)c1CNC(=O)c1cn(Cc2ccc(N3CC4C(C3)C4(F)F)cc2C#N)nc1C(F)(F)F (stereo not drawn) [Compound 204] | 1.23 nM | > 10 µM | > 10 µM | 
11 | COc1ccnc(CNC(=O)c2cn(Cc3ccc(Cn4ccccc4=O)cc3)nc2CN2CCN(C)CC2)c1F [Compound 213] | 35 nM | > 10 µM | > 10 µM | 
12 | COc1ccc(F)c(CNC(=O)c2cn(Cc3ccc(Cn4cc(F)ccc4=O)cc3)nc2C2CC2(F)F)c1F (stereo not drawn) [Compound 218] | 2.16 nM | > 10 µM | > 10 µM | 
13 | COc1ccc(F)c(CNC(=O)c2cn(Cc3ccc(Cn4ccccc4=O)cc3)nc2COCCN(C)C)c1F [Compound 222] | 1.94 nM | > 10 µM | > 10 µM | 
14 | COc1ccc(F)c(CNC(=O)c2cn(Cc3ccc(Cn4ccccc4=O)cc3)nc2CO[C@H]2CCN(C)C2)c1F [Compound 225] | 2.86 nM | > 10 µM | > 10 µM | 
15 | Cc1nc(N)c(C)c(C)c1CNC(=O)c1ncn(Cc2ccc(Cn3ccccc3=O)cc2)n1 [Compound 250] | 1.9 nM | > 10 µM | > 10 µM | 
16 | COc1cc(Cn2cc(C(=O)NCc3ccc(C(=N)N)cc3)cn2)ccc1CC1CC1 [Compound 255] | 2.35 nM | > 10 µM | > 10 µM | 
17 | CCc1c(N)nc(C)c(CNC(=O)c2ncn(Cc3ccc(Cn4ccccc4=O)cc3)n2)c1C [Compound 257] | 0.67 nM | > 10 µM | > 10 µM | 
18 | N=C(N)c1ccc(CNC(=O)c2cnn(Cc3ccc(CC4CC4)c(F)c3)c2)cc1 [Compound 262] | 2.67 nM | > 10 µM | > 10 µM | 
19 | CCOc1cc(Cn2cc(C(=O)NCc3ccc(C(=N)N)cc3)cn2)ccc1CC1CC1 [Compound 264] | 0.82 nM | > 10 µM | > 10 µM | 
20 | COc1ccc(Cl)c(CNC(=O)c2cn(Cc3ccc(Cn4ccccc4=O)cc3)nc2COCC2(F)COC2)c1F [Compound 289] | 2.31 nM | > 10 µM | > 10 µM | 
21 | COc1ccnc(CNC(=O)c2cn(Cc3ccc(Cn4ccccc4=O)cc3)nc2N2CC(C)(O)C2)c1F [Compound 296] |  | > 10 µM | > 10 µM | 2.22 nM
22 | CN(C)c1ccnc(CNC(=O)c2cn(Cc3ccc(Cn4ccccc4=O)cc3)nc2C2CC2(F)F)c1F (stereo not drawn) [Compound 310] | 1.6 nM | > 10 µM | > 10 µM | 
23 | N=C(N)c1ccc(CNC(=O)c2cnn(Cc3ccc(CC4CC4)cc3)c2)cc1F [Compound 321] | 2.71 nM | > 10 µM | > 10 µM | 
24 | CN(C)c1ccnc(CNC(=O)c2cn(Cc3ccc(Cn4ccccc4=O)cc3)nc2C2COC2)c1F [Compound 335] | 1.92 nM | > 10 µM | > 10 µM | 
25 | O=C(NCc1ncc2cc[nH]c2c1F)c1cn(Cc2ccc(Cn3ccccc3=O)cc2)nc1C1COC1 [Compound 337, N-((7-fluoro-1H-pyrrolo[3,2-c]pyridin-6-yl)methyl)-3-(oxetan-3-yl)-1-(4-((2-oxopyridin-1(2H)-yl)methyl)benzyl)-1H-pyrazole-4-carboxamide] | 2.23 nM | > 10 µM | > 10 µM | 

More lines, in order of falling IC50 (plasma kallikrein (PKa); [1]), values ahead:

Row | IC50 (plasma kallikrein (PKa); [1]) | IC50 (KLK1) | IC50 (FXIa) | SMILES | IC50 (plasma kallikrein (PKa); [2])
26 | 0.65 nM | > 10 µM | > 10 µM | COCc1nn(Cc2ccc(Cn3ccccc3=O)cc2)cc1C(=O)NCc1c(C)cc2nccn2c1C [Compound 143] | 
27 | 0.6 nM | > 10 µM | > 10 µM | Nc1ccnc(CNC(=O)c2cn(Cc3ccc(Cn4ccccc4=O)cc3)nc2C2COC2)c1F [Compound 274] | 
28 | 0.59 nM | > 10 µM | > 10 µM | COc1ccnc(CNC(=O)c2cn(Cc3ccc(Cn4ccccc4=O)cc3)nc2C2C(C)(C)C2(F)F)c1F (stereo not drawn) [Compound 263] | 
29 | 0.53 nM | > 10 µM | > 10 µM | Cc1cc2nccn2c(C)c1CNC(=O)c1cnn(Cc2ccc(Cn3ccccc3=O)cc2)c1 [Compound 94] | 
30 | 0.53 nM | > 10 µM | > 10 µM | Cc1cn2cncc2c(C)c1CNC(=O)c1cn(Cc2ccc(Cn3ccccc3=O)cc2)nc1C(F)(F)F [Compound 203] | 
31 | 0.48 nM | > 10 µM | > 10 µM | COCc1nn(Cc2ccc(CC3CC3)cc2)cc1C(=O)NCc1ccc(C(=N)N)cc1 [Compound 121] | 
32 | 0.44 nM | > 10 µM | > 10 µM | Cc1nc(N)c(C)c(C)c1CNC(=O)c1cnn(Cc2ccc(Cn3ccccc3=O)cc2)c1 [Compound 256] | 
33 | 0.35 nM | > 10 µM | > 10 µM | Cc1cc2nccn2c(C)c1CNC(=O)c1cn(Cc2ccc(Cn3ccccc3=O)cc2)nc1C(F)(F)F [Compound 142, N-((5,7-dimethylimidazo[1,2-a]pyridin-6-yl)methyl)-1-(4-((2-oxopyridin-1(2H)-yl)methyl]benzyl)-3-(trifluoromethyl)-1H-pyrazole-4-carboxamide] | 
34 | 0.32 nM | > 10 µM | > 10 µM | Cc1cc(C(=N)N)cc(C)c1CNC(=O)c1cnn(Cc2ccc(Cn3ccccc3=O)cc2)c1 [Compound 314] | 
35 | 0.26 nM | > 10 µM | > 10 µM | N=C(N)c1ccc(CNC(=O)c2cnn(Cc3ccc(CC4CC4)cc3)c2)cc1 [Compound 105] | 
36 | 0.22 nM | > 10 µM | > 10 µM | Cc1cc(N)nc(C)c1CNC(=O)c1ccn(Cc2ccc(Cn3cccc(C)c3=O)cc2)n1 [Compound 75] | 
37 | 0.19 nM | > 10 µM | > 10 µM | COCc1nn(Cc2ccc(Cn3ccccc3=O)cc2)cc1C(=O)NCc1ccc2c(N)nccc2c1 [Compound 71] | 
38 | 0.18 nM | > 10 µM | > 10 µM | COCc1nn(Cc2ccc(C3CCCCC3)c(C(F)(F)F)c2)cc1C(=O)NCc1ccc(C(=N)N)cc1 [Compound 153] | 
39 | 0.18 nM | > 10 µM | > 10 µM | CCc1c(N)nc(C)c(CNC(=O)c2cnn(Cc3ccc(Cn4ccccc4=O)cc3)c2)c1C [Compound 253] | 
40 | 0.18 nM | > 10 µM | > 10 µM | N=C(N)c1ccc(CNC(=O)c2cnn(Cc3ccc(CC4CC4)cc3)c2)c(F)c1 [Compound 270] | 
41 | 0.096 nM | > 10 µM | > 10 µM | Cc1cc(N)nc(C)c1CNC(=O)c1ncn(Cc2cc(Cl)c(Cn3ccccc3=O)cc2Cl)n1 [Compound 80] | 
42 | 0.076 nM | > 10 µM | > 10 µM | Cc1cc(N)nc(C)c1CNC(=O)c1cn(Cc2ccc(Cn3ccccc3=O)cc2)nc1C(F)F [Compound 69, N-((6-amino-2,4-dimethylpyridin-3-yl)methyl)-3-(difluoromethyl)-1-(4-(2-oxopyridin-1(2H)-yl)methylbenzyl)-1H-pyrazole-4-carboxamide] | 
43 | 0.07 nM | > 10 µM | > 10 µM | Cc1cc(N)nc(C)c1CNC(=O)c1cn(Cc2ccc(Cn3ccccc3=O)cc2)nc1C(F)(F)F [Compound 116] | 
